# Read-outs that look alike come from different tables or passages of the source.
# Legend:
# [1] = system: SK-CO-1 cells; assay: SK-CO-1 CTG proliferation assay (120 h) (CRC, G12V); assay type: cell-based; settings: Homo sapiens; SK-CO-1 cells (CRC, G12V), CTG 120 h
# Procedure, shortened: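 Compound exposure lasted 120 h in KRAS G12V SK-CO-1 cells seeded overnight at 500 cells/well in 10% FCS EMEM. CellTiter-Glo RLU normalised to DMSO wells gave percent viability, and a four-parameter model fit yielded IC50.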
# [2] = Metabolic (microsomal) stability assay, human liver microsomes (HLM); assay type: in vitro ADME; settings: predicted clearance as percent of liver blood flow, 1 μM
# Procedure, shortened: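 LC-MS/MS tracked parent disappearance at 0, 5, 15, 30 and 60 min in NADPH-initiated incubations with 1 mg/mL human microsomal protein and 1 μM compound at 37°C, pH 7.5. First-order fits gave intrinsic clearance, which was scaled up and reported as % QH. NADPH-free controls were also run.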
# [3] = system: NCI-H358 cells; assay: NCI-H358 CTG proliferation assay (120 h) (NSCLC, G12C); assay type: cell-based, human; settings: Homo sapiens
# Procedure, shortened: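 IC50 values derive from four-parameter nonlinear regression of CellTiter-Glo viability (RLU relative to DMSO wells) after 120 h of exposure. Cells were plated in RPMI-1640 + 10% FCS at 2000 per well (assay 1) or 200 per well (assay 2). Untreated cells were measured at compound addition as T0.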
# [4] = Plasma protein binding assay (PPB), equilibrium dialysis, 10% FCS in PBS; assay type: in vitro ADME; settings: bovine, read-out: PPB 10% FCS (% fu)
# Procedure, shortened: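 Test compound (1-10 μmol/L) in 10% FCS in PBS was dialysed for 3-5 h at 37° C versus PBS ± dextran across a semipermeable membrane. LC-MS of both compartments after protein precipitation gave Cserum and Cbuffer, from which the unbound fraction fu was derived.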
# [5] = system: KRAS G12V-dependent Ba/F3 cells; assay: Ba/F3 proliferation assay, KRAS G12V; assay type: cell-based; settings: Mus musculus, BaF3, 72 h, AlamarBlue;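 also: proliferation IC50 in KRAS G12V-dependent Ba/F3 cells read by AlamarBlue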
# Procedure, shortened: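 IL-3-independent Ba/F3 lines carrying retrovirally introduced KRAS G12C, G12D or G12V; puromycin withdrawn ~10 days before assay. Duplicate treatments, AlamarBlue fluorescence readout, curve-fit analysis.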
# [6] = assay 2, CTG, read-out: H358 (assay 2) IC50
# [7] = assay 1, CTG, read-out: H358 (assay 1) IC50
Compound,IC50 [1] [nM],HLM QH [2] [%],"IC50 [3, 6] [nM]",fraction unbound [4],IC50 [5] [nM],"IC50 [3, 7] [nM]"
C[C@H](Oc1cc(N2CCN(C)C3(CCC3)C2)nc(-c2onc3c2CCC[C@@]32CCCc3sc(N)c(C#N)c32)n1)[C@@H]1CCCN1C [I-44],1210,<24,2330,0.22,1050,–
CO[C@H]1CCN(C)[C@@H]1[C@H](C)Oc1cc(N2CCNC3(CC3)C2)nc(-c2onc3c2CCC[C@@]32CCCc3sc(N)c(C#N)c32)n1 [I-49],515,40,145,0.15,184,–
C[C@H](Oc1cc(-c2ccn(C)n2)nc(-c2noc3c2CCC[C@@]32CCCc3sc(N)c(C#N)c32)n1)[C@@H]1C[C@@H](F)CN1C [II-27],115,44,44,0.05,16,112
CO[C@H]1CCN(C)[C@@H]1[C@H](C)Oc1cc(-n2ccc(C(=O)N[C@@H]3CCOC3)n2)nc(-c2onc3c2CCC[C@@]32CCCc3sc(N)c(C#N)c32)n1 [I-53],7,56,1,0.05,1,–
C[C@H](Oc1cc(N2CCNC3(CCC3)C2)nc(-c2onc3c2CCC[C@@]32CCCc3sc(N)c(C#N)c32)n1)[C@@H]1CCCN1C [I-3],2090,<24,1320,0.68,351,–
C[C@H](Oc1cc(-n2ccc(C(=O)N(C)C3COC3)n2)nc(-c2onc3c2CCC[C@@]32CCCc3sc(N)c(C#N)c32)n1)[C@@H]1CCCN1C [I-60],21,<24,4,0.1,4,–
C[C@H](Oc1cc(-c2ccn(C[C@@H](C)O)n2)nc(-c2onc3c2CCC[C@@]32CCCc3sc(N)c(C#N)c32)n1)[C@@H]1CCCN1C [I-30],31,<24,205,0.46,8,–
C[C@H](Oc1cc(-c2cnsc2)nc(-c2onc3c2CCC[C@@]32CCCc3sc(N)c(C#N)c32)n1)[C@@H]1CCCN1C [I-27],52,<24,121,0.21,7,–
C[C@H](Oc1cc(-c2ccc(N)nc2)nc(-c2onc3c2CCC[C@@]32CCCc3sc(N)c(C#N)c32)n1)[C@@H]1CCCN1C [I-25],357,<24,188,0.35,57,–
C[C@H](Oc1cc(N2CCNC3(CC3)C2)nc(-c2onc3c2CCC[C@@]32CCCc3sc(N)c(C#N)c32)n1)[C@@H]1C[C@@H](F)CN1C [I-45],763,45,470,0.14,453,–
C[C@H](Oc1cc(N2C[C@@H](N(C)C)[C@@H](O)C2)nc(-c2noc3c2CCC[C@@]32CCCc3sc(N)c(C#N)c32)n1)[C@@H]1CCCN1C [II-10],1660,<24,570,0.69,957,–
COCCNC(=O)c1ccn(-c2cc(O[C@@H](C)[C@@H]3CCCN3C)nc(-c3onc4c3CCC[C@@]43CCCc4sc(N)c(C#N)c43)n2)n1 [I-58],14,34,5,0.28,6,–
C[C@H](Oc1cc(N2CCC(N(C)C)CC2)nc(-c2noc3c2CCC[C@@]32CCCc3sc(N)c(C#N)c32)n1)[C@@H]1CCCN1C [II-48],1070,<24,2160,0.62,581,–
C[C@H](Oc1cc(-n2nccn2)nc(-c2onc3c2CCC[C@@]32CCCc3sc(N)c(C#N)c32)n1)[C@@H]1CCCN1C [I-29],381,27,2760,0.54,15,–
CO[C@@H]1C[C@@H]([C@H](C)Oc2cc(-c3ccn(C)n3)nc(-c3onc4c3CCC[C@@]43CCCc4sc(N)c(C#N)c43)n2)N(C)C1 [I-23],139,45,–,0.2,7,1
[2H]C([2H])([2H])N1C[C@H](F)C[C@H]1[C@H](C)Oc1cc(N2CCN(C)C3(CC3)C2)nc(-c2noc3c2CCC[C@@]32CCCc3sc(N)c(C#N)c32)n1 [II-209],1390,40,136,0.06,389,–
C[C@H](Oc1cc(-n2ccc(C(=O)N[C@@H]3CCOC3)n2)nc(-c2onc3c2CCC[C@@]32CCCc3sc(N)c(C#N)c32)n1)[C@@H]1CCCN1C [I-56],8,25,2,0.32,4,–
C[C@H](Oc1cc(-c2ccn([C@H]3CCCOC3)n2)nc(-c2noc3c2CCC[C@@]32CCCc3sc(N)c(C#N)c32)n1)[C@@H]1CCCN1C [II-42],38,<24,136,0.1,5,–
C[C@H](Oc1cc(N2CCNC3(COC3)C2)nc(-c2noc3c2CCC[C@@]32CCCc3sc(N)c(C#N)c32)n1)[C@@H]1CCCN1C [II-31],365,42,143,0.63,65,–
C[C@H](Oc1cc(-c2ccn(C[C@@H]3CCCO3)n2)nc(-c2noc3c2CCC[C@@]32CCCc3sc(N)c(C#N)c32)n1)[C@@H]1CCCN1C [II-43],46,<24,117,0.11,8,–
C[C@H](NC(=O)c1ccn(-c2cc(O[C@@H](C)[C@@H]3CCCN3C)nc(-c3onc4c3CCC[C@@]43CCCc4sc(N)c(C#N)c43)n2)n1)c1ccccn1 [I-59],5,<24,2,0.04,1,–
C[C@H](Oc1cc(-n2ccnn2)nc(-c2onc3c2CCC[C@@]32CCCc3sc(N)c(C#N)c32)n1)[C@@H]1CCCN1C [I-32],111,45,303,0.48,3,–
Cc1nc(-c2cc(O[C@@H](C)[C@@H]3CCCN3C)nc(-c3onc4c3CCC[C@@]43CCCc4sc(N)c(C#N)c43)n2)cs1 [I-24],67,<24,163,0.19,5,–
CN[C@H]1CCN(c2cc(O[C@@H](C)[C@@H]3CCCN3C)nc(-c3noc4c3CCC[C@@]43CCCc4sc(N)c(C#N)c43)n2)C1 [II-35],5730,<24,457,0.77,1680,–
C[C@H](Oc1cc(-c2ccn(CC(C)(C)O)n2)nc(-c2onc3c2CCC[C@@]32CCCc3sc(N)c(C#N)c32)n1)[C@@H]1CCCN1C [I-26],118,<24,140,0.23,13,–
C[C@@H]1CN(c2cc(O[C@@H](C)[C@@H]3C[C@@H](F)CN3C)nc(-c3noc4c3CCC[C@@]43CCCc4sc(N)c(C#N)c43)n2)CC2(CC2)N1 [II-17],617,63,134,0.09,422,–
CCOC(=O)c1ccn(-c2cc(O[C@@H](C)[C@@H]3CCCN3C)nc(-c3noc4c3CCC[C@@]43CCCc4sc(N)c(C#N)c43)n2)n1 [II-23],31,<24,4,0.03,4,–
C[C@H](Oc1cc(N2CCNC3(CCCC3)C2)nc(-c2noc3c2CCC[C@@]32CCCc3sc(N)c(C#N)c32)n1)[C@@H]1CCCN1C [II-41],910,<24,1520,0.1,980,–
C[C@H](Oc1cc(-n2ccc(C(N)=O)n2)nc(-c2noc3c2CCC[C@@]32CCCc3sc(N)c(C#N)c32)n1)[C@@H]1CCCN1C [II-21],6,<24,4,0.24,3,10
C[C@H](Oc1cc(-n2ccc(C(=O)NC3(C)COC3)n2)nc(-c2noc3c2CCC[C@@]32CCCc3sc(N)c(C#N)c32)n1)[C@@H]1CCCN1C [II-26],3,<24,4,0.24,3,–

# From patent US20240174690A1, “ANNULATED 2-AMINO-3-CYANO THIOPHENES AND DERIVATIVES FOR THE TREATMENT OF CANCER” (BOEHRINGER INGELHEIM INTERNATIONAL GMBH, priority 2021, published 2024)
